Source: patent publication US8586599B2, “Polymorphic forms of 6-(1-methyl-1H-pyrazol-4-yl)-2-{3-[5-(2-morpholin-4-yl-ethoxy)-pyrimidin-2-yl]-benzyl}-2H-pyridazin-3-one dihydrogenphosphate and processes of manufacturing thereof” (Merck Patent GmbH, priority 2008, dated 2013)
Values after ≈ are worked out from the molar mass of the structure shown.

How the values were obtained:
[1] = Competitive slurry conversion of crystalline modifications A1 and NF5 in water (Example 11); format: physicochemical; conditions: aqueous slurrying at 25° C., in words
Method: (§1) A PTFE-coated stirring rod was inserted into the dispersion prior to sealing the vial. The dispersion was agitated in closed vial for 12 days, using a magnetic stirrer, at 25° C. The solid-state residue was filtered, and analyzed by XRD to monitor morphic form after solvent slurrying.

[2] = Water Vapour Sorption Isotherm (25° C.); format: physicochemical; conditions: for Relative humidity above which re-conversion to the hydrate form occurs upon adsorption / Relative humidity below which hydrate water is lost / Relative humidity range with small water uptake levels upon adsorption / Water uptake levels at elevated relative humidity (hydrate formation) / Relative humidity above which pronounced water uptake levels are observed: 25° C.; for Relative humidity below which hydrate water is lost: desorption
Text: The crystalline modifications of the present invention can be characterized according to standard methods which can be found e.g. in Rolf Hilfiker, ‘Polymorphism in the Pharmaceutical Industry’, Wiley-VCH, Weinheim 2006, and references therein, e.g. X-Ray diffraction (XRD; chapter 6), IR and Raman spectroscopy (chapter 5), Differential Scanning Calorimetry (DSC) and Thermogravimetric Analysis (TGA) (chapter 3), Water Vapour Sorption Studies (chapter 9), or which can be found e.g. in H. G. Brittain (editor), Polymorphism in Pharmaceutical Solids, Vol. 95, Marcel Dekker Inc., New York 1999 (chapter 6: all there mentioned techniques).
Pronounced water uptake levels are observed above 70% RH (crystalline modification A type a) and above 90% RH (crystalline modification A type b), respectively, which results in formation of dihydrate crystalline modification H1 (water uptake levels of approx. 6 wt %) at elevated relative humidity (RH).
Pronounced water uptake levels are observed above 70% RH, which results in formation of crystalline hydrate modification NF5 (water uptake levels of approx. 5-6 wt %) at elevated relative humidity (RH).

[3] = Competitive slurry conversion of crystalline modifications H1 and NF5 in water (Example 12); format: physicochemical; conditions: aqueous slurrying at 25° C., in words
Method: as §1

[4] = Competitive slurry conversion of crystalline modifications H1 and NF3 in water (Example 13); format: physicochemical; conditions: aqueous slurrying at 25° C., in words
Method: A PTFE-coated stirring rod was inserted into the dispersion prior to sealing the vial. The dispersion was agitated in closed vial for 5 days, using a magnetic stirrer, at 25° C. The solid-state residue was filtered, and analyzed by XRD to monitor morphic form after solvent slurrying.

[5] = Solubility determination in water (Example 9); format: physicochemical; conditions: for pH value: solubility sample in water; for solubility at 1 h / solubility at 2 h: thermodynamic from solid, water, ambient temperature, maximal possible concentration 10 mg/mL
Method: The mixture is stirred at 1000 rpm on a magnetic stirring plate at ambient temperature. At the sampling point 100 μL of the respective solution/suspension are transferred to a 500 μL Eppendorff cap and are centrifuged for 5 min at 14000 rpm.

[6] = Stability in aqueous solution, salt compared to free base; format: physicochemical; conditions: in words, no data shown
physchem = conditions: organic solvent or mixture, thermodynamic from solid
Method: (§2) The dispersion was agitated at RT for 2 hours at 450 rpm. After filtration of the dispersion after 2 hours, the filtrate is analysed by HPLC (dilution may be necessary before analysis).

[7] = Kinetic solubility determination in water:acetone 30:70 (v:v) after 2 hours (Example 14)
Method: as §2

[8] = Competitive slurry conversion of crystalline modifications A1 and NF3 in organic solvents (Example 10); format: physicochemical; conditions: 25° C. and 50° C., in words
Method: PTFE-coated stirring rods were inserted into the dispersions prior to sealing the vials. Dispersions were agitated in closed vials for 5 days, using a magnetic stirrer, at 25° C. and 50° C., respectively. Solid-state residues were filtered, and analyzed by XRD to monitor morphic form after solvent slurrying.

Cn1cc(-c2ccc(=O)n(Cc3cccc(-c4ncc(OCCN5CCOCC5)cn4)c3)n2)cn1.O.O=P(O)(O)O [crystalline modification NF5, 6-(1-methyl-1H-pyrazol-4-yl)-2-{3-[5-(2-morpholin-4-yl-ethoxy)-pyrimidin-2-yl]-benzyl}-2H-pyridazin-3-one dihydrogenphosphate hydrate]
Relative stability of forms A1 and NF5 [1]: more stable form in an aqueous dispersion system
Relative humidity above which re-conversion to the hydrate form occurs upon adsorption [2]: > 70 % RH
Relative humidity below which hydrate water is lost [2]: < 40 % relative humidity (RH)

Cn1cc(-c2ccc(=O)n(Cc3cccc(-c4ncc(OCCN5CCOCC5)cn4)c3)n2)cn1.O.O.O=P(O)(O)O [crystalline modification H1, 6-(1-methyl-1H-pyrazol-4-yl)-2-{3-[5-(2-morpholin-4-yl-ethoxy)-pyrimidin-2-yl]-benzyl}-2H-pyridazin-3-one dihydrogenphosphate dihydrate]
Relative stability of forms H1 and NF5 [3]: stable form in an aqueous dispersion system
Relative stability of forms H1 and NF3 [4]: more stable form in an aqueous dispersion system
Relative humidity above which re-conversion to the hydrate form occurs upon adsorption [2]: > 70 % RH
Relative humidity below which hydrate water is lost [2]: < 40 % relative humidity (RH)

Cn1cc(-c2ccc(=O)n(Cc3cccc(-c4ncc(OCCN5CCOCC5)cn4)c3)n2)cn1.O=P(O)(O)O [dihydrogenphosphate, 6-(1-methyl-1H-pyrazol-4-yl)-2-{3-[5-(2-morpholin-4-yl-ethoxy)-pyrimidin-2-yl]-benzyl}-2H-pyridazin-3-one dihydrogenphosphate]
Solubility in aqueous solutions compared to free base ([5]; in words): significantly higher solubility
pH value ([5]; sample point 1 h): 3.91
pH value ([5]; sample point 2 h): 3.97
solubility at 1 h ([5]; sample point 1 h): 9860 µg/mL
solubility at 2 h ([5]; sample point 2 h): > 10000 µg/mL
Stability in aqueous solution compared to free base [6]: significantly superior stability in aqueous solution

Cn1cc(-c2ccc(=O)n(Cc3cccc(-c4ncc(OCCN5CCOCC5)cn4)c3)n2)cn1.O=P(O)(O)O [crystalline modification NF3, 6-(1-methyl-1H-pyrazol-4-yl)-2-{3-[5-(2-morpholin-4-yl-ethoxy)-pyrimidin-2-yl]-benzyl}-2H-pyridazin-3-one dihydrogenphosphate]
Relative humidity range with small water uptake levels upon adsorption [2]: 0-70 % relative humidity (RH)
Water uptake levels at elevated relative humidity (hydrate formation) ([2]; listed as NF3): 5-6 wt %
Relative humidity above which pronounced water uptake levels are observed ([2]; results in formation of hydrate NF5): above 70 % RH
solubility at 2 h (physchem): 10600 µg/mL
Solubility level after 2 hours compared to form A1 ([7]; water:acetone (30:70, v:v), in words): lower solubility level

Cn1cc(-c2ccc(=O)n(Cc3cccc(-c4ncc(OCCN5CCOCC5)cn4)c3)n2)cn1 [free base, 6-(1-methyl-1H-pyrazol-4-yl)-2-{3-[5-(2-morpholin-4-yl-ethoxy)-pyrimidin-2-yl]-benzyl}-2H-pyridazin-3-one]
solubility at 1 h ([5]; sample point 1 h): 167 µg/mL (≈ 353 µM)
solubility at 2 h ([5]; sample point 2 h): 156 µg/mL (≈ 329 µM)

Cn1cc(-c2ccc(=O)n(Cc3cccc(-c4ncc(OCCN5CCOCC5)cn4)c3)n2)cn1.O=P(O)(O)O [crystalline modification A1, 6-(1-methyl-1H-pyrazol-4-yl)-2-{3-[5-(2-morpholin-4-yl-ethoxy)-pyrimidin-2-yl]-benzyl}-2H-pyridazin-3-one dihydrogenphosphate anhydrate]
Relative stability of forms A1 and NF3 [8]: more stable form
Relative humidity range with small water uptake levels upon adsorption ([2]; type a): 0-70 % relative humidity (RH)
Relative humidity above which pronounced water uptake levels are observed ([2]; type a, results in formation of dihydrate H1): above 70 % RH
Relative humidity range with small water uptake levels upon adsorption ([2]; type b): 0-90 % RH
Relative humidity above which pronounced water uptake levels are observed ([2]; type b, results in formation of dihydrate H1): above 90 % RH
Water uptake levels at elevated relative humidity (hydrate formation) ([2]; listed as A1): approx. 6 wt %
Physical stable form in the humidity range 0% up to (upper limit) ([2]; varying relative humidity conditions): at least 70 % RH
Solubility water:acetone (30:70, v:v) after 2 h ([7]; kinetic solubility, RT, 2 hours, 450 rpm): 18200 µg/mL
